Experiments:
[1] = molecular target: T1, Sodium-dependent noradrenaline transporter (Homo sapiens, UniProt P23975); assay: Enhancing of [125I]RTI-55 binding to recombinant human NET expressed in HEK293 cell membranes preincubated for 10 mins followed by radioligand addition measured after 90 mins by micro beta scintillation counting analysis; parameters: concentration or dose not given beside the values
[2] = molecular target: T1, Sodium-dependent noradrenaline transporter; assay: Inhibition of recombinant human NET expressed in HEK293 […] assessed as reduction in [3H]-norepinephrine uptake incubated for 22 mins by micro beta scintillation counting analysis
[3] = molecular target: Sodium-dependent dopamine transporter (Homo sapiens, UniProt Q01959); assay: Enhancing of [3H]WIN35,428 binding to recombinant human DAT expressed in HEK293 cell membranes at 10 uM pre-incubated for 10 mins before radioligand addition and measured 90 mins after radioligand addition by micro beta scintillation counting analysis relative to control
[4] = molecular target: T2, Alpha-1B adrenergic receptor (Homo sapiens, UniProt P35368); assay: Displacement of [3H]Prazosin from human adrenergic alpha1B receptor
T2 sequence (P35368 whole entry): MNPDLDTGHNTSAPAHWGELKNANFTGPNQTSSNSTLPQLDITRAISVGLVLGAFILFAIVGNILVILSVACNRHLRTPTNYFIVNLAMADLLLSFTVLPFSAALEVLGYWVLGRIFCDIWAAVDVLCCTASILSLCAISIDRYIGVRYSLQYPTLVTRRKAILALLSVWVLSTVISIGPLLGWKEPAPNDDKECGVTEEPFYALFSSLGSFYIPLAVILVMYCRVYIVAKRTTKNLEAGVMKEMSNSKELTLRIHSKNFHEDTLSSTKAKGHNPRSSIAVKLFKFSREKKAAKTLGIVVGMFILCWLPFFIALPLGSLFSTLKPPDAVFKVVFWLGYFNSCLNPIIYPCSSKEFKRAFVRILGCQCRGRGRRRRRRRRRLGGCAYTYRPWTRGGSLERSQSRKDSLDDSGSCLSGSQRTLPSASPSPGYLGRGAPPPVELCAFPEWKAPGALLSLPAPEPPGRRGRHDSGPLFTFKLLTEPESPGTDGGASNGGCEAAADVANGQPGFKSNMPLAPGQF

Adenosine receptor A3 [5] = molecular target: T3, Adenosine receptor A3 (Homo sapiens, UniProt P0DMS8); assay: Displacement of [125I]N6-(4-amino-3-iodobenzyl)adenosine-5'-N-methyluronamide from human A3AR expressed in HEK293T cells pre-incubated for 10 mins before radioligand addition and measured 90 mins after radioligand addition by micro beta scintillation counting analysis relative to control; assay type: cell-based, HEK-293T
T3 sequence (P0DMS8 whole entry): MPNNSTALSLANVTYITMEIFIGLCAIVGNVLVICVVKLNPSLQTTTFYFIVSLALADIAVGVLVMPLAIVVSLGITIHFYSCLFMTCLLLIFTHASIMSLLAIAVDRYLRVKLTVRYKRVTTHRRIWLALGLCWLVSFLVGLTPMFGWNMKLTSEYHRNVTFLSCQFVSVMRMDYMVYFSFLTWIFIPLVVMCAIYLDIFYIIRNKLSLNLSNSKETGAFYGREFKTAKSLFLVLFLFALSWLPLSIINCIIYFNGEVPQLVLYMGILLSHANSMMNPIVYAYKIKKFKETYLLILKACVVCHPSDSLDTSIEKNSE

Adenosine receptor A3 [6] = molecular target: T4, Adenosine receptor A3 (Mus musculus, UniProt Q61618); assay: Displacement of [125I]N6-(4-amino-3-iodobenzyl)adenosine-5'-N-methyluronamide from mouse A3AR expressed in HEK293T cells pre-incubated for 10 mins before radioligand addition and measured 90 mins after radioligand addition by micro beta scintillation counting analysis relative to control; assay type: cell-based
T4 sequence (Q61618 whole entry): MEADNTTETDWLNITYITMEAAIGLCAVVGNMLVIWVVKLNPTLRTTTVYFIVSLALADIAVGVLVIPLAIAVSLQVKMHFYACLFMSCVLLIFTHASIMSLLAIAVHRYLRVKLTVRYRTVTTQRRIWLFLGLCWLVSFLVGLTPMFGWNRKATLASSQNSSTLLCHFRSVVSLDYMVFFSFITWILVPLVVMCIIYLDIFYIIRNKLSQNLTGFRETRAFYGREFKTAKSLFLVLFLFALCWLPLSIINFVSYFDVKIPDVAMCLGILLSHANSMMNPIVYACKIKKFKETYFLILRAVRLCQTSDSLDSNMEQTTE

T1 sequence (P23975 whole entry): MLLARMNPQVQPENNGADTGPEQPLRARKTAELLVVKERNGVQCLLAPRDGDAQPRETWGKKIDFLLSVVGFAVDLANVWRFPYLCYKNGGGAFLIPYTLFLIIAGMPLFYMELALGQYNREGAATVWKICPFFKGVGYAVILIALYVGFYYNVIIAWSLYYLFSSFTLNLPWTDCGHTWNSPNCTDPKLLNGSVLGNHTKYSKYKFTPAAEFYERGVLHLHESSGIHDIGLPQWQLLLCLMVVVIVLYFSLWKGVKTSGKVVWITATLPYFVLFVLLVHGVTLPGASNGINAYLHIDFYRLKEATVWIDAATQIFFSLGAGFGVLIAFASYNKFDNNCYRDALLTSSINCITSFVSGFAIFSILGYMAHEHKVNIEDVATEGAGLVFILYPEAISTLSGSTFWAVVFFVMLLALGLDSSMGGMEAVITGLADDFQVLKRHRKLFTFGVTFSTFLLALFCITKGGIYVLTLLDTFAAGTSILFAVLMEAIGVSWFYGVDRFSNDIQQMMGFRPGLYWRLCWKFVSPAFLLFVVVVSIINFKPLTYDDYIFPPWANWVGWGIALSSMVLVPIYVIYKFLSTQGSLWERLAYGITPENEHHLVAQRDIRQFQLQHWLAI
Sequence of Sodium-dependent dopamine transporter (Q01959 whole entry): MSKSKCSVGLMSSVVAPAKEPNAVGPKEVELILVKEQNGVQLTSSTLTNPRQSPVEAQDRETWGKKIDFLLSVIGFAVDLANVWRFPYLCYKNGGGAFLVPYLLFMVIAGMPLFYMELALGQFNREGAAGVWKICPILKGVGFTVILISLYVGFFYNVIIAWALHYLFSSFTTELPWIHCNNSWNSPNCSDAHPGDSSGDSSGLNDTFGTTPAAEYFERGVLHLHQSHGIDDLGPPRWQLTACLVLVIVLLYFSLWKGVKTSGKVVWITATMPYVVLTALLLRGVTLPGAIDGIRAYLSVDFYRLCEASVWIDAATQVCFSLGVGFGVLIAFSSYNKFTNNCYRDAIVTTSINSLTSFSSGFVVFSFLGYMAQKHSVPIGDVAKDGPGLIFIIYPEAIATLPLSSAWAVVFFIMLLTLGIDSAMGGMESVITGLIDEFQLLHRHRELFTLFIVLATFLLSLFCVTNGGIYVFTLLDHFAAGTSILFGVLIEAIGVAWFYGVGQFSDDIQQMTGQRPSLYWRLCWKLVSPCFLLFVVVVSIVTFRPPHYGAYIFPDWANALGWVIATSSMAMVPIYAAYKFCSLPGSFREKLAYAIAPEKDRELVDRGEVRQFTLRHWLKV

CNc1nc(C#Cc2ccc(Cl)s2)nc2c1ncn2[C@@H]1O[C@H](C(=O)OC)[C@@H](O)[C@H]1O
Activity [1]: 227% | EC50 ([1]; read-out: EC50): 1520 nM | IC50 [2]: 2690 nM | Activity [3]: 220% | Ki [4]: > 10000 nM | Ki (Adenosine receptor A3 [5]): 11.5 nM | Ki (Adenosine receptor A3 [6]): 34 nM

— ChEMBL document CHEMBL4007505 (J Med Chem, 2017)
